Numbered stars: 1 amine (or outer) side, 2 acyl side, 3 side chain; on linkers, the order of the positions; unused ones are H or OH. Bridge positions count the residues as written; N and C are the ends. Square brackets hold non-standard residues; d marks the D form. Peptide text beside a SMILES is read from it. I, II: the chains in the order shown. ξ: configuration not given here. Phe(4-tBu) = CC(C)(C)c1ccc(C[C@H](N)C(=O)O)cc1; Diglycolyl = O=C(COCC(=O)[*:2])[*:1]; NMeR = CN[C@@H](CCCNC(=N)N)C(=O)O; β3hE = N[C@@H](CCC(=O)O)CC(=O)O; Thr(3ξ) = CC(O)[C@H](N)C(=O)O; Pen = CC(C)(S)[C@H](N)C(=O)O
Experiments:
[1] = tested on: BALB/c mice, chronic DSS colitis; test: 15 day chronic DSS colitis mouse model; type: in vivo; conditions: all doses: 55, 17 or 6 mg/kg/day in drinking water
Description: To further evaluate the efficacy of peptides of the present invention in treating colitis, a chronic DSS colitis mouse model was used to examine the effects of orally administered Peptide X or another peptide, Peptide XX, as compared to vehicle control or the antibodies, MECA 367 and DATK32. Peptide XX is a dimer having the following structure, where DIG links the two peptide monomers by their C-termini:
In this 15 day chronic DSS colitis study, BALB/c mice were treated continuously with 2.5% DSS. Peptide X dosing was 55 mg/kg/day, 17 mg/kg/day or 6 mg/kg/day in drinking water. Peptide XX dosing was 10 mg/kg PO BID plus 0.2 mg/ml in drinking water. The anti-α4β7 Ab DATK32 was dosed 25 mg/kg IP every 3 days, and the anti-MAdCAM Ab MECA 367 was dosed 8 mg/kg IP daily. After takedown, distal colon sections were fixed for histopathology and processed for β7+ cell IH staining using the anti-β7 antibody M293.

[2] = tested on: C57BL/6 mice, DSS colitis; test: Additional 9 day DSS colitis studies; type: in vivo, mouse
Description: In this 9 day DSS colitis study, C57BL/6 mice were treated with 3% DSS from Day 1 to Day 6, and switched to normal water until Day 10. Daily dosing was PO BID plus drinking water for Peptide X, and 25 mg/kg IP every 3 days for the anti-α4β7 antibody DATK32. PP and blood were collected and levels of α4β7+ memory T cells analyzed by FACS.

α4β7 integrin = α4β7 integrin (Homo sapiens, UniProt P13612+P26010); test: Schild analysis, MAdCAM binding to immobilized α4β7 integrin by ELISA; conditions: global-fit Schild analysis
Description: Schild analysis was used to determine if Peptide X blocked MAdCAM binding to α4β7 integrin by a simple competitive mechanism. […] Based on the dose-response shifts, global-fit Schild analysis was used to determine the Schild slope and equilibrium dissociation constant (KB). The slope was ˜1, which indicated the inhibition is orthosteric antagonism with respect to MAdCAM, and not allosteric antagonism. […] The estimated KB value was 1 nM, which was similar to other Peptide X potency values in different assays.

[3] = PK studies in normal or DSS treated mice and rats, oral dosing; type: in vivo

α4β7 integrin, sequence (P13612 34-977 limits assumed): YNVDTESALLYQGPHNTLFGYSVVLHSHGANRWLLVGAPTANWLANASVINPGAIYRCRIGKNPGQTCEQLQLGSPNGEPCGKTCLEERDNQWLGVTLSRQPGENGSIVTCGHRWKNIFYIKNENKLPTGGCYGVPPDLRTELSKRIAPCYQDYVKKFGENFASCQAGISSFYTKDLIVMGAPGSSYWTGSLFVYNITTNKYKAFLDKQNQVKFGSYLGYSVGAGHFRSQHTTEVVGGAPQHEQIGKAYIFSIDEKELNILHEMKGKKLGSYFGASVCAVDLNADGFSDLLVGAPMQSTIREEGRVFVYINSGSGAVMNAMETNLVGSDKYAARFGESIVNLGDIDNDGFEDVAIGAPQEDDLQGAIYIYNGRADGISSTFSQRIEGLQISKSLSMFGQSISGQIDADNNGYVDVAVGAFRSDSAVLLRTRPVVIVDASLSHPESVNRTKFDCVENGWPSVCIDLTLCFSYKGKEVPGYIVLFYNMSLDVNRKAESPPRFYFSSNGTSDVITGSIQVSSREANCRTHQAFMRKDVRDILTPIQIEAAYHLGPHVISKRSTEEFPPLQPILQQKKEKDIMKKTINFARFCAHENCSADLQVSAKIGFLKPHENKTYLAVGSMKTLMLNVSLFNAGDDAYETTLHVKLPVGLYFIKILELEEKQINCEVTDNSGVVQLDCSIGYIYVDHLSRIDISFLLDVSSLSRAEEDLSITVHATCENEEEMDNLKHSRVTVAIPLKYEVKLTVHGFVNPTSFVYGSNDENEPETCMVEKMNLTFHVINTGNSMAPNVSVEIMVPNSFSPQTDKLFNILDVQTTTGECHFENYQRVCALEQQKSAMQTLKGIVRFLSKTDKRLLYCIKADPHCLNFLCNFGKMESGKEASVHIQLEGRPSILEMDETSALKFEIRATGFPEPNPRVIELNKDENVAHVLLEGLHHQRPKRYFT
α4β7 integrin, sequence (P26010 20-723 limits assumed): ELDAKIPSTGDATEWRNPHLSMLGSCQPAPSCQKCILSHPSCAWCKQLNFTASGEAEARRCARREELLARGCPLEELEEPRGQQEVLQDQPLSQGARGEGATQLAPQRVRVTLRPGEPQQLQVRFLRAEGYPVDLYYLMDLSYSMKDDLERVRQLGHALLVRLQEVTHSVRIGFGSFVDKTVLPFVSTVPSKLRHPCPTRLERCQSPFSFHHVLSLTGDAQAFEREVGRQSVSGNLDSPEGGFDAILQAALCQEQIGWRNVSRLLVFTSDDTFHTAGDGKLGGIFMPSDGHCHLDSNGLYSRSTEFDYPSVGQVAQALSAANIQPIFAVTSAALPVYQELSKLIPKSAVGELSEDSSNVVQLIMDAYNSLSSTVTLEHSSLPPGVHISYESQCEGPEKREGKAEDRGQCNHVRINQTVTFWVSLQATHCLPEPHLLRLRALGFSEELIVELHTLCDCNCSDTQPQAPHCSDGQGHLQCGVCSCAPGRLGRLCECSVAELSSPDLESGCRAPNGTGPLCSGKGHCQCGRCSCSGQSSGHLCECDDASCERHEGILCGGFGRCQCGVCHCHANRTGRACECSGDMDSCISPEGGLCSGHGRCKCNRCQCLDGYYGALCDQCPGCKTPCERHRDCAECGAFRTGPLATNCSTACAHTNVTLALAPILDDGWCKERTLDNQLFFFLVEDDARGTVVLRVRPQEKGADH

Structure (SMILES): CC(=O)N[C@@H]1C(=O)N(C)[C@@H](CCCNC(=N)N)C(=O)N[C@@H](CO)C(=O)N[C@@H](CC(=O)O)C(=O)N[C@@H](C(C)O)C(=O)N[C@@H](CC(C)C)C(=O)N[C@H](C(=O)N[C@@H](Cc2ccc(C(C)(C)C)cc2)C(=O)N[C@@H](CCC(=O)O)CC(=O)N[C@H](CCCCNC(=O)COCC(=O)NCCCC[C@@H](NC(=O)C[C@H](CCC(=O)O)NC(=O)[C@H](Cc2ccc(C(C)(C)C)cc2)NC(=O)[C@H]2NC(=O)[C@H](CC(C)C)NC(=O)[C@H](C(C)O)NC(=O)[C@H](CC(=O)O)NC(=O)[C@H](CO)NC(=O)[C@H](CCCNC(=N)N)N(C)C(=O)[C@@H](NC(C)=O)C(C)(C)SSC2(C)C)C(N)=O)C(N)=O)C(C)(C)SSC1(C)C (stereo partly drawn) [Peptide X, [Ac-Pen-(N-Me-Arg)-Ser-Asp-Thr-Leu-Pen-(Phe(4-tBu))-(β-homoGlu)-(D-Lys)]2-DIG] (I: Ac-[Pen][NMeR]SD[Thr(3ξ)]L[Pen][Phe(4-tBu)][β3hE][dK]-NH2 / II: Ac-[Pen][NMeR]SD[Thr(3ξ)]L[Pen][Phe(4-tBu)][β3hE][dK]-NH2; disulfide I:1-I:7, II:1-II:7; linker I:10-II:10 via Diglycolyl)
- infiltration of B7+ cells into the lamina propria of the distal colon [1]: reduced infiltration
- body weight loss and mucosal injury as assessed by endoscopy ([2]; DSS mice orally dosed daily for 9 days): dose-dependent reduction in body weight loss and mucosal injury
- CD4+CD44highCD45RBlowβ7+ T cells in MLN, Peyer's Patches, spleen and blood ([2]; DSS mice orally dosed daily for 9 days, FACS): dose dependent reduction
- α4β7+ T cells in gut lymphoid tissues and blood ([2]; PO BID plus drinking water): reduced α4β7+ T cells in gut lymphoid tissues and redirected them to blood
- Schild slope (α4β7 integrin): ~1
- Kb (α4β7 integrin; estimated, read-out: equilibrium dissociation constant (KB)): 1 nM
- levels in the blood and urine after oral dosing [3]: no significant measurable levels in the blood and urine
